In the supplement of paper PMC10307832:

These cell lines were tested with COc1nc(N)nc2c1ncn2[C@@H]1O[C@H](CO)[C@@H](O)[C@@H]1O [Nelarabine] + CC(=O)Nc1cccc(-n2c(=O)n(C3CC3)c(=O)c3c(Nc4ccc(I)cc4F)n(C)c(=O)c(C)c32)c1 [Trametinib] (partner 0.02 µM) (assay: relative viability (nuclei count vs DMSO), 5 days (fraction); higher = more cells survive). Conditions: first compound 1 µM.
How it was run: (§1)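 Dosing by pin tool came one day after lung cancer cell lines were seeded in 1536-well plates, using either one drug or a fixed anchor-drug dose plus five library-drug doses (not always all listed) in √10 steps. After 5 days, nuclei were counted on 4× images. Relative viability is treated-well nuclei count divided by vehicle-well nuclei count, and values are medians of duplicate plates.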
For HCC-366, the relative viability was 0.327. With HCC-827 the relative viability was 0.478. Work on HOP-62 yielded a relative viability of 0.408. In the case of LC-2-ad, the relative viability is reported as 0.899. Cell Line LCLC-97TM1 has a relative viability of 0.224. LCLC-103H showed a relative viability of 0.69. Cell Line LK-2 has a relative viability of 0.86. Work on LOU-NH91 yielded a relative viability of 0.794. In the case of LU99A, the relative viability is reported as 0.599. Work on LXF-289 yielded a relative viability of 0.73. Cell Line NCI-H23 has a relative viability of 0.409. In the case of NCI-H322M, the relative viability is reported as 0.511. With NCI-H358 the relative viability was 0.123. Work on NCI-H522 yielded a relative viability of 0.742. In the case of NCI-H1648, the relative viability is reported as 0.477. NCI-H1650 was tested, and the relative viability was 0.562. NCI-H2170 showed a relative viability of 0.911. Work on NCI-H2342 yielded a relative viability of 0.907. SW 900 gave a relative viability of 0.753.

Each cell line was assayed with C=CCn1c(=O)c2cnc(Nc3ccc(N4CCN(C)CC4)cc3)nc2n1-c1cccc(C(C)(C)O)n1 [Adavosertib] + Cc1nc(NC(=O)N2CCC[C@H]2C(N)=O)sc1-c1ccnc(C(C)(C)C(F)(F)F)c1 [Alpelisib] (partner 2 µM) in the same assay as above. Conditions: first compound 0.01 µM.
How it was run: as §1
With 201T the relative viability was 0.986. With A549 the relative viability was 0.813. In the case of A-427, the relative viability is reported as 1.08. ABC-1 was tested, and the relative viability was 0.993. With BEN the relative viability was 1.24. In the case of CAL-12T, the relative viability is reported as 1.09. In the case of COR-L23, the relative viability is reported as 0.778. COR-L 105 gave a relative viability of 1.05. For Calu-6, the relative viability was 0.983. For EBC-1, the relative viability was 0.98. Cell Line EKVX has a relative viability of 0.843. Work on EPLC-272H yielded a relative viability of 0.918. H3255 gave a relative viability of 0.648. HARA showed a relative viability of 0.746. With HCC-15 the relative viability was 0.904. Cell Line HCC-44 has a relative viability of 0.881. Cell Line HCC-78 has a relative viability of 0.347. HCC-366 showed a relative viability of 0.47. Work on HCC-827 yielded a relative viability of 1. Work on HOP-62 yielded a relative viability of 0.924. With IA-LM the relative viability was 0.649. LC-2-ad gave a relative viability of 0.768. For LCLC-103H, the relative viability was 0.973. In the case of LK-2, the relative viability is reported as 1.03. LOU-NH91 gave a relative viability of 0.704. LU99A showed a relative viability of 0.48. With LXF-289 the relative viability was 1.08. Cell Line NCI-H23 has a relative viability of 0.639. NCI-H358 showed a relative viability of 0.831. For NCI-H1299, the relative viability was 1.06. With NCI-H1563 the relative viability was 0.924. NCI-H1703 was tested, and the relative viability was 0.367. With NCI-H2170 the relative viability was 0.849.

Same assay, conditions: first compound 0.03162 µM
Work on 201T yielded a relative viability of 1.03. For A549, the relative viability was 0.896. Work on A-427 yielded a relative viability of 1.11. Cell Line ABC-1 has a relative viability of 1.04. With BEN the relative viability was 1.09. Work on CAL-12T yielded a relative viability of 1.27. Work on COR-L23 yielded a relative viability of 0.687. COR-L 105 gave a relative viability of 1.12. Calu-6 gave a relative viability of 0.856. Cell Line EBC-1 has a relative viability of 0.843. EKVX gave a relative viability of 0.858. For EPLC-272H, the relative viability was 0.893. H3255 was tested, and the relative viability was 0.689. In the case of HARA, the relative viability is reported as 0.858. Cell Line HCC-15 has a relative viability of 0.916. HCC-44 showed a relative viability of 0.864. For HCC-78, the relative viability was 0.305. In the case of HCC-366, the relative viability is reported as 0.435. HCC-827 showed a relative viability of 1.05. Work on HOP-62 yielded a relative viability of 1.02. IA-LM gave a relative viability of 0.731. Cell Line LC-2-ad has a relative viability of 0.84. LCLC-97TM1 showed a relative viability of 0.219. Cell Line LCLC-103H has a relative viability of 0.926. For LK-2, the relative viability was 1.23. With LOU-NH91 the relative viability was 0.758. LU99A gave a relative viability of 0.511. In the case of LXF-289, the relative viability is reported as 1.01. With NCI-H23 the relative viability was 0.775. Cell Line NCI-H322M has a relative viability of 0.77. In the case of NCI-H358, the relative viability is reported as 0.769. For NCI-H1299, the relative viability was 0.979. In the case of NCI-H1563, the relative viability is reported as 0.943. In the case of NCI-H1703, the relative viability is reported as 0.361. Work on NCI-H2170 yielded a relative viability of 0.804.

Same assay, conditions: first compound 0.1 µM
Work on 201T yielded a relative viability of 0.94. For A549, the relative viability was 0.957. A-427 gave a relative viability of 1.1. With ABC-1 the relative viability was 1.28. For BEN, the relative viability was 1.04. CAL-12T gave a relative viability of 1.2. In the case of COR-L23, the relative viability is reported as 0.729. With COR-L 105 the relative viability was 0.972. Cell Line Calu-6 has a relative viability of 0.94. Cell Line EBC-1 has a relative viability of 0.921. EKVX showed a relative viability of 0.833. Work on EPLC-272H yielded a relative viability of 0.868. H3255 showed a relative viability of 0.716. Cell Line HARA has a relative viability of 0.814. With HCC-15 the relative viability was 0.987. Cell Line HCC-44 has a relative viability of 0.813. In the case of HCC-78, the relative viability is reported as 0.443. HCC-366 gave a relative viability of 0.501. Work on HCC-827 yielded a relative viability of 0.995. For HOP-62, the relative viability was 1.14. IA-LM was tested, and the relative viability was 0.833. For LC-2-ad, the relative viability was 0.791. LCLC-97TM1 was tested, and the relative viability was 0.23. In the case of LCLC-103H, the relative viability is reported as 1.04. Cell Line LK-2 has a relative viability of 1.14. Cell Line LOU-NH91 has a relative viability of 0.731. LU99A gave a relative viability of 0.476. LXF-289 gave a relative viability of 1.09. NCI-H23 showed a relative viability of 0.591. In the case of NCI-H322M, the relative viability is reported as 0.711. Cell Line NCI-H358 has a relative viability of 0.693. With NCI-H1299 the relative viability was 1.07. NCI-H1563 gave a relative viability of 0.949. With NCI-H1703 the relative viability was 0.304. NCI-H2170 was tested, and the relative viability was 0.678.

Same assay, conditions: first compound 0.3162 µM
Work on 201T yielded a relative viability of 0.962. For A549, the relative viability was 0.804. A-427 showed a relative viability of 1.04. With ABC-1 the relative viability was 1.08. BEN gave a relative viability of 1.18. CAL-12T gave a relative viability of 0.929. COR-L23 was tested, and the relative viability was 0.243. In the case of COR-L 105, the relative viability is reported as 0.798. For Calu-6, the relative viability was 0.793. EBC-1 was tested, and the relative viability was 0.81. Cell Line EKVX has a relative viability of 0.911. EPLC-272H showed a relative viability of 0.723. With H3255 the relative viability was 0.668. Cell Line HARA has a relative viability of 0.63. In the case of HCC-15, the relative viability is reported as 1.04. Work on HCC-44 yielded a relative viability of 0.958. HCC-78 gave a relative viability of 0.278. HCC-366 showed a relative viability of 0.509. In the case of HCC-827, the relative viability is reported as 0.838. Cell Line HOP-62 has a relative viability of 0.955. In the case of IA-LM, the relative viability is reported as 0.931. With LC-2-ad the relative viability was 0.804. In the case of LCLC-97TM1, the relative viability is reported as 0.122. Cell Line LCLC-103H has a relative viability of 0.94. LK-2 was tested, and the relative viability was 1.1. LOU-NH91 showed a relative viability of 0.66. LU99A showed a relative viability of 0.319. LXF-289 was tested, and the relative viability was 1.07. NCI-H23 was tested, and the relative viability was 0.346. With NCI-H322M the relative viability was 0.543. For NCI-H358, the relative viability was 0.336. Cell Line NCI-H1299 has a relative viability of 0.997. Work on NCI-H1563 yielded a relative viability of 1.12. NCI-H1703 showed a relative viability of 0.147. Cell Line NCI-H2170 has a relative viability of 0.705.
